# In patent US20120172344A1, “INSULIN-PRODUCING CELL INDUCER, GLUCOSE INTAKE ENHANCER, AND THERAPEUTIC AGENT FOR DIABETES OR DIABETES COMPLICATIONS” (KYUSHU UNIVERSITY, NATIONAL UNIVERSITY CORPORATION, priority 2009, published 2012):
# Tested on: muscles (soleus muscle) of Tg23 mice
# Assay: Experimental Example 3: glucose (2-deoxy-D-glucose) intake of soleus muscles
# Format: in vivo, mouse
# Settings: isolated soleus muscles of WT and Tg mice incubated in KRB buffer with vs without insulin, 10 minutes at 30° C.
# Description: Mice were sacrificed, and extensor digitorum longus (EDL) muscles and soleus muscles were quickly removed and processed. Both ends of each of the muscles were tied with suture (silk 4-0), and mounted on an incubation apparatus. First, the muscles were preincubated for 20 minutes in 6 ml of Krebs-Ringer bicarbonate (KRB) buffer (117 mM NaCl, 4.7 mM KCl, 2.5 mM CaCl2, 1.2 mM KH2PO4, 1.2 mM MgSO4, 24.6 mM NaHCO3, pH 7.5) containing 2 mM pyruvate. Then, the muscles were incubated in KRB buffer in presence or absence of insulin.
# Immediately after muscle incubation, the muscles were transferred to KRB buffer containing 1 mM 2-deoxy-D-[^3H]glucose (1.5 μCi/ml) and 7 mM D-[^14C]mannitol (0.3 μCi/ml) (PerkinElmer Life Sciences) at 30° C., and incubated again for 10 minutes. When using insulin, a buffer containing insulin was used for incubation in a similar manner.
# Glucose transport was terminated by dipping the muscles in KRB buffer containing 80 μmol/L cytochalasin B at 4° C., and then the muscles were frozen in liquid nitrogen. The muscles were weighed, and digested by incubating in 250 μl of 1 M NaOH at 80° C. for 10 minutes. Digests were neutralized with 250 μl of 1 M HCl. […] Radioactivity in aliquots of the digested muscle was determined by liquid scintillation counting for dual labels, and extracellular and intracellular spaces were calculated. […]
substance,measurement,value
insulin,amount of glucose intake of muscles in presence (+) of insulin,increased
